Data reported in ChEMBL document CHEMBL1130452, “L-373,890, An achiral, noncovalent, subnanomolar thrombin inhibitor” (Bioorg Med Chem Lett, 1997).

Key:
[1] = biological target: Tissue-type plasminogen activator (Homo sapiens, UniProt P00750); assay: Binding affinity against serine protease Tissue type plasminogen activator
[2] = biological target: Vitamin K-dependent protein C (Homo sapiens, UniProt P04070); assay: Binding affinity against serine protease Activated protein C
Serine protease 1 = Serine protease 1 (Homo sapiens, UniProt P07477); assay: Binding affinity against human trypsin
Serine protease 1, sequence (P07477 whole entry): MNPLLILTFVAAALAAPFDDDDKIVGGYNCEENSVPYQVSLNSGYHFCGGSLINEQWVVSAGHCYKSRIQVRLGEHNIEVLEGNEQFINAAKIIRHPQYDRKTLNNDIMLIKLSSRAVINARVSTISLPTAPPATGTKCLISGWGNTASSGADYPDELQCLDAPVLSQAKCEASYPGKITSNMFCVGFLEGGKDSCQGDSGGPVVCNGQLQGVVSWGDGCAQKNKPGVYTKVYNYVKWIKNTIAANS

Plasminogen = Plasminogen (Rattus norvegicus, UniProt Q01177); assay: Binding affinity against serine protease plasmin
Plasminogen, sequence (Q01177 97-581 limits assumed): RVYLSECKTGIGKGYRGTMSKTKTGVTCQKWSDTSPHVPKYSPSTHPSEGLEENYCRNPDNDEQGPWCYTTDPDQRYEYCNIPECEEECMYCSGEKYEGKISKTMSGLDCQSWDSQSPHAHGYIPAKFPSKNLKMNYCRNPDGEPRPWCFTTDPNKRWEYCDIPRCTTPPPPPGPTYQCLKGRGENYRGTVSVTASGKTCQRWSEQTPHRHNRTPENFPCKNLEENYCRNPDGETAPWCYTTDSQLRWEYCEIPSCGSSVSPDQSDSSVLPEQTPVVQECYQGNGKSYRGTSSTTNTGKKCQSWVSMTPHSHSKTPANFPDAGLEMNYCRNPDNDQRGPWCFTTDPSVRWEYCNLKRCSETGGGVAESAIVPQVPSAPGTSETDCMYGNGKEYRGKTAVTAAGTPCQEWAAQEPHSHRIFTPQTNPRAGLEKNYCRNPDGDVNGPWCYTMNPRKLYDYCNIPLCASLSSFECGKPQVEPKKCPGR
Plasminogen, sequence (Q01177 582-812 limits assumed): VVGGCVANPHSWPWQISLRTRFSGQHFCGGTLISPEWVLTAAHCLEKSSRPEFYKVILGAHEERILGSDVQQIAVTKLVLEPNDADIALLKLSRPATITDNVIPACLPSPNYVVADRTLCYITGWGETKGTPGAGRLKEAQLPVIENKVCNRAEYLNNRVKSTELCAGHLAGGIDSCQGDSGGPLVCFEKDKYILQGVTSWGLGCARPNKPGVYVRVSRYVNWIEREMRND

Plasma kallikrein = Plasma kallikrein (Homo sapiens, UniProt P03952); assay: Binding affinity against serine protease plasma kallikrein; type: cell-free
Plasma kallikrein, sequence (P03952 20-390 limits assumed): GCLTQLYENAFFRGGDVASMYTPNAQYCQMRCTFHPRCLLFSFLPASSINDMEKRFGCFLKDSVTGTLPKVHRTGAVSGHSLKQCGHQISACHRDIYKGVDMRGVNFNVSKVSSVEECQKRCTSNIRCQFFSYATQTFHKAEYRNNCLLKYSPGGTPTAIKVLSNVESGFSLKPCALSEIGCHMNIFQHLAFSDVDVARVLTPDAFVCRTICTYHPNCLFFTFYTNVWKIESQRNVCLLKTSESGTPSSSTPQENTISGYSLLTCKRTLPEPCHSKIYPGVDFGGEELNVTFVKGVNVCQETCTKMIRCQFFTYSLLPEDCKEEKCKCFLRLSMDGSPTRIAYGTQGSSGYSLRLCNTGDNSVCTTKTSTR
Plasma kallikrein, sequence (P03952 391-638 limits assumed): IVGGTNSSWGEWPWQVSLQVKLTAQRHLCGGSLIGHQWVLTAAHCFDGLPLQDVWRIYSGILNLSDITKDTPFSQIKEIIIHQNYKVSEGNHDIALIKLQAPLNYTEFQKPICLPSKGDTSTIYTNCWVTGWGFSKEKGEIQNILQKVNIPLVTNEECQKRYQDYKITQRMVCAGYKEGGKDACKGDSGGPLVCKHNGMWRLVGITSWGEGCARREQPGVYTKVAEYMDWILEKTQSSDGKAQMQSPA

Chymotrypsinogen A = Chymotrypsinogen A (Bos taurus, UniProt P00766); assay: Binding affinity against serine protease […]; type: cell-free
Prothrombin [3] = biological target: T1, Prothrombin (Homo sapiens, UniProt P00734); assay: Binding affinity against human thrombin
Prothrombin [4] = biological target: T1, Prothrombin; assay: Binding affinity was evaluated against human thrombin

Tissue-type plasminogen activator, sequence (P00750 whole entry): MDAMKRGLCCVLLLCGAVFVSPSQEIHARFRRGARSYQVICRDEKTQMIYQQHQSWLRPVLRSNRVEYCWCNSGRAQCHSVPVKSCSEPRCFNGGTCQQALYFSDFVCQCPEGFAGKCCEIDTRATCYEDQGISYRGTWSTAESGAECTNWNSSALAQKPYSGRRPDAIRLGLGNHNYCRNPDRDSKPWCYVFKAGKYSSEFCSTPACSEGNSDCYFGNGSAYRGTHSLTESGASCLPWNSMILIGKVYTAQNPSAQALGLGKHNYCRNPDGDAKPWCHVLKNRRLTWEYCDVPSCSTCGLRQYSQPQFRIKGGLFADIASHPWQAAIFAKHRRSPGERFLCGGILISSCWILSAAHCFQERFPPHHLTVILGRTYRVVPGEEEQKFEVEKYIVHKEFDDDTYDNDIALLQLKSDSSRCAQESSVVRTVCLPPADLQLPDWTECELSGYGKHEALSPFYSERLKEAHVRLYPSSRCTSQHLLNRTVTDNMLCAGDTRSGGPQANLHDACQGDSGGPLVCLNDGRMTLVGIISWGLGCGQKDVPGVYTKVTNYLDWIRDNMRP
Vitamin K-dependent protein C, sequence (P04070 43-197 limits assumed): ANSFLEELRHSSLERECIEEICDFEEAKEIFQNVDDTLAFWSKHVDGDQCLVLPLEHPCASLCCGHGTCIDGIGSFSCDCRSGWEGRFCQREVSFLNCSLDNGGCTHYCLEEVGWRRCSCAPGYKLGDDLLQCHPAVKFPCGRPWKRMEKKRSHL
Vitamin K-dependent protein C, sequence (P04070 212-461 limits assumed): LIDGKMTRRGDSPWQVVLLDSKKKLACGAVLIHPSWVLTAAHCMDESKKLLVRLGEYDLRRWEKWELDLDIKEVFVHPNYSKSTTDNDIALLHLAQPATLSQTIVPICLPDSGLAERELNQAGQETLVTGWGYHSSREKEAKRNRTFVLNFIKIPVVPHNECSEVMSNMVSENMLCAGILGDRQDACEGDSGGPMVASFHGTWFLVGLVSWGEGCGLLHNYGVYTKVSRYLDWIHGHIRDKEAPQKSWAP

Row | Structure (SMILES) | Ki (Serine protease 1) [nM] | Ki (Prothrombin [3]) [nM] | also measured
1 | Cc1ccc(NS(=O)(=O)Cc2ccccc2)c(=O)n1CC(=O)NC[C@H]1CC[C@H](N)CC1 | 3000 | – | –
2 | Cc1ccc(S(=O)(=O)Nc2ccc(C)n(CC(=O)NC[C@H]3CC[C@H](N)CC3)c2=O)cc1 | 2100 | 47 | –
3 | Cc1ccc(S(=O)(=O)Nc2ccc(C)n(CC(=O)NCC3CCN(C(=N)N)CC3)c2=O)cc1 | 140 | 29 | –
4 | CN[C@H](Cc1ccccc1)C(=O)N1CCCC1C(=O)NC[C@H]1CC[C@H](N)CC1 (some centres not stated) | – | – | Ki (Prothrombin [4]): 5 nM
5 | Cc1ccc(NC(=O)c2ccccc2)c(=O)n1CC(=O)NCC1CCN(C(=N)N)CC1 | 1500 | 690 | –

Second part, led by results:

Row | Ki (Serine protease 1) [nM] | Ki (Prothrombin [3]) [nM] | Structure (SMILES) | also measured
6 | 570 | – | Cc1ccc(NS(=O)(=O)Cc2ccccc2)c(=O)n1CC(=O)NCC1CCN(C(=N)N)CC1 | Ki [1]: > 20000 nM; Ki [2]: > 20000 nM; Ki (Plasminogen): > 20000 nM; Ki (Plasma kallikrein): > 20000 nM; Ki (Chymotrypsinogen A): > 20000 nM
7 | 350 | 77 | Cc1ccc(NC(=O)OCc2ccccc2)c(=O)n1CC(=O)NCC1CCN(C(=N)N)CC1 | –
8 | 890 | 166 | Cc1ccc(NC(=O)CC(c2ccccc2)c2ccccc2)c(=O)n1CC(=O)NCC1CCN(C(=N)N)CC1 | –
9 | 940 | 95 | Cc1ccc(NC(=O)CCc2ccccc2)c(=O)n1CC(=O)NCC1CCN(C(=N)N)CC1 | –
10 | 2200 | 47 | Cc1ccc(NCCc2ccccc2)c(=O)n1CC(=O)NC[C@H]1CC[C@H](N)CC1 | –
